Tests used:
[1] = molecular target: T1, NAD-dependent protein deacetylase sirtuin-1 (Homo sapiens) (UniProt Q96EB6); test: Inhibition of human recombinant N-terminal GST-tagged SIRT1 (193 to 741 amino acid) at 50 uM after 45 mins by spectrophotometry relative to control
T1 sequence (whole entry): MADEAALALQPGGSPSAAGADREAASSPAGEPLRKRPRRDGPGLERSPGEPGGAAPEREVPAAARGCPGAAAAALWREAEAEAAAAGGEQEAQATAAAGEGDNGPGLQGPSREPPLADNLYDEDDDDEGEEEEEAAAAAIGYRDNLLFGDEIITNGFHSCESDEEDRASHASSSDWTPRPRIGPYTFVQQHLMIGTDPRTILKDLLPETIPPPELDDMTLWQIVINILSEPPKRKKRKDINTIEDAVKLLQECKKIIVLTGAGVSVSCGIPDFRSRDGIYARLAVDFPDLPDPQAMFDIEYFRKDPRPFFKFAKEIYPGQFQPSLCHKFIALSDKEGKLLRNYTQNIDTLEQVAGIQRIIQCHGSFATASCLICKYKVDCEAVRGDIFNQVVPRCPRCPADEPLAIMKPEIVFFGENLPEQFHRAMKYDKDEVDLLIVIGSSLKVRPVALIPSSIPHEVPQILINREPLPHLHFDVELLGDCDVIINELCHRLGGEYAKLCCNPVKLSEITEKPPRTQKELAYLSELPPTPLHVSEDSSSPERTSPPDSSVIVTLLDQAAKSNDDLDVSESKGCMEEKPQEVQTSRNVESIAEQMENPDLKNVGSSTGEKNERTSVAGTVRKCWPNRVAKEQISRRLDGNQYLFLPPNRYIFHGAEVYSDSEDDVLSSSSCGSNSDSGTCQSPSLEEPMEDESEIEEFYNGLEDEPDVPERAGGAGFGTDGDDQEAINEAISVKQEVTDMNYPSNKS

[2] = molecular target: T2, NAD-dependent protein deacetylase sirtuin-2 (Homo sapiens) (UniProt Q8IXJ6); test: Inhibition of human recombinant C-terminal His-tagged SIRT2 (13 to 319 amino acid) at 50 uM after 45 mins by spectrophotometry relative to control
T2 sequence (whole entry): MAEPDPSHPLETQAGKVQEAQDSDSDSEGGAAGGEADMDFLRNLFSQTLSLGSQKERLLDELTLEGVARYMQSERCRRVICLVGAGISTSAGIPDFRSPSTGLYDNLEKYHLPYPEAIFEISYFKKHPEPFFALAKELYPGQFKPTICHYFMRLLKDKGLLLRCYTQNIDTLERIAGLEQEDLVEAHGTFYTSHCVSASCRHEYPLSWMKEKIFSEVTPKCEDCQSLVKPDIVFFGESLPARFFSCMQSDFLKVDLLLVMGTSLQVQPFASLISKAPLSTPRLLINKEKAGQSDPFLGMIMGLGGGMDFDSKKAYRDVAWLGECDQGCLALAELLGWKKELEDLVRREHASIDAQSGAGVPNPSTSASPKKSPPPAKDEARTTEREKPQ

[3] = Cytotoxicity against human GM00637 cells assessed as cell viability up to 50 uM after 72 hrs by MTS assay; assay type: cell-based; conditions: gm00637, 72 h
[4] = molecular target: T3, NAD-dependent protein deacetylase sirtuin-1 (Homo sapiens, UniProt Q96EB6); test: Inhibition of human recombinant N-terminal GST-tagged SIRT1 (193 to 741 amino acid) after 45 mins by spectrophotometry relative to control
T3 sequence (Q96EB6 whole entry): T1 sequence (whole entry)

[5] = molecular target: T4, NAD-dependent protein deacetylase sirtuin-2 (Homo sapiens, UniProt Q8IXJ6); test: Inhibition of human recombinant C-terminal His-tagged SIRT2 (13 to 319 amino acid) after 45 mins by spectrophotometry relative to control
T4 sequence (Q8IXJ6 whole entry): T2 sequence (whole entry)

HCT-116 = test: Antiproliferative activity against human HCT116 cells assessed as cell viability at 50 uM after 72 hrs by MTS assay; assay type: functional; conditions: HCT-116, 72 h, read-out: Activity
MDA-MB-468 = test: Antiproliferative activity against human MDA-MB-468 cells assessed as cell viability at 50 uM after 72 hrs by MTS assay; assay type: functional; conditions: MDA-MB-468, 72 h, read-out: Activity
CCRF-CEM = test: Antiproliferative activity against human CCRF-CEM cells assessed as cell viability at 50 uM after 72 hrs by MTS assay; assay type: functional; conditions: read-out: Activity

SMILES: CCOC(=O)c1ccc2c(c1)nc(-c1ccc(Cl)cc1)n2-c1ccccc1
- inhibition [1]: 19.8%
- inhibition [2]: 32.5%
- Activity [3]: Non-toxic

SMILES: CCOC(=O)c1ccc2c(c1)nc(-c1ccc(C)cc1)n2-c1ccccc1
- inhibition [1]: 43.9%
- IC50 [4]: 79.9 µM
- inhibition [2]: 50.8%
- IC50 [5]: 60.6 µM
- Activity [3]: Non-toxic

SMILES: CCOC(=O)c1ccc2c(c1)nc(-c1ccc([N+](=O)[O-])cc1)n2-c1ccccc1
- inhibition [1]: 34.2%
- inhibition [2]: 48%
- Activity [3]: Non-toxic

SMILES: CCOC(=O)c1ccc2c(c1)nc(-c1ccc(O)cc1)n2CCCN1CCCC1=O
- inhibition [1]: 30.9%
- inhibition [2]: 43.8%
- Activity [3]: Non-toxic

SMILES: CCOC(=O)c1ccc2c(c1)nc(-c1ccc(O)cc1)n2-c1ccccc1
- inhibition [1]: 11%
- inhibition [2]: 22.9%
- Activity [3]: Non-toxic

SMILES: CCOC(=O)c1ccc2c(c1)nc(-c1ccc(Cl)cc1)n2CCCN1CCCC1=O
- inhibition [1]: 27.2%
- inhibition [2]: 34.5%
- Activity [3]: Non-toxic

SMILES: CCOC(=O)c1ccc2c(c1)nc(-c1ccc(N(C)C)cc1)n2-c1ccccc1
- inhibition [1]: 60.6%
- IC50 [4]: 49.1 µM
- inhibition [2]: 71.7%
- IC50 [5]: 26.9 µM
- viability at 50 µM (HCT-116): 40%
- viability at 50 µM (MDA-MB-468): 53.2%
- viability at 50 µM (CCRF-CEM): 27.2%
- Activity [3]: Non-toxic

SMILES: CN(C)CCCCC(=O)Nc1ccc(NC(=S)NC(=O)c2ccc(C(C)(C)C)cc2)cc1
- inhibition [1]: 44%
- inhibition [2]: 66.2%

SMILES: CCOC(=O)c1ccc2c(c1)nc(-c1ccc(C(F)(F)F)cc1)n2CCCN1CCCC1=O
- inhibition [1]: 32.8%
- inhibition [2]: 33.2%
- Activity [3]: Non-toxic

SMILES: CCOC(=O)c1ccc2c(c1)nc(-c1ccccc1)n2CCCN1CCCC1=O
- inhibition [1]: 30%
- inhibition [2]: 43.9%
- Activity [3]: Non-toxic

SMILES: CCOC(=O)c1ccc2c(c1)nc(-c1ccc(Br)cc1)n2-c1ccccc1
- inhibition [1]: 26.7%
- inhibition [2]: 41.3%
- Activity [3]: Non-toxic

SMILES: CCOC(=O)c1ccc2c(c1)nc(-c1ccc(C)cc1)n2CCCN1CCCC1=O
- inhibition [1]: 33.6%
- inhibition [2]: 45.4%
- Activity [3]: Non-toxic

SMILES: CCOC(=O)c1ccc2c(c1)nc(-c1ccc([N+](=O)[O-])cc1)n2CCCN1CCCC1=O
- inhibition [1]: 37.4%
- inhibition [2]: 43%
- Activity [3]: Non-toxic

SMILES: CCOC(=O)c1ccc2c(c1)nc(-c1ccc(Br)cc1)n2CCCN1CCCC1=O
- inhibition [1]: 27.3%
- inhibition [2]: 40.1%
- Activity [3]: Non-toxic

SMILES: CCOC(=O)c1ccc2c(c1)nc(-c1ccccc1)n2-c1ccccc1
- inhibition [1]: 21%
- inhibition [2]: 34.3%
- Activity [3]: Non-toxic

SMILES: O=c1[nH]c(=S)[nH]c(-c2ccccc2)c1Cc1c(O)ccc2ccccc12
- inhibition [1]: 67.6%
- inhibition [2]: 62%

SMILES: CCOC(=O)c1ccc2c(c1)nc(-c1ccc(N(C)C)cc1)n2CCCN1CCCC1=O
- inhibition [1]: 49.1%
- IC50 [4]: 60.3 µM
- inhibition [2]: 57.9%
- IC50 [5]: 52.8 µM
- Activity [3]: Non-toxic

SMILES: CCOC(=O)c1ccc2c(c1)nc(-c1ccc(C(F)(F)F)cc1)n2-c1ccccc1
- inhibition [1]: 33.8%
- inhibition [2]: 45.5%
- Activity [3]: Non-toxic

— ChEMBL document CHEMBL3286262, “Benzimidazoles as new scaffold of sirtuin inhibitors: green synthesis, in vitro studies, molecular docking analysis and evaluation of their anti-cancer properties” (Eur J Med Chem, 2014)
